In the supplement of paper PMC11451515:

System: NOMO1
Assay: cell viability relative to DMSO control; higher = less cytotoxic
Conditions: 48 h
How it was run: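 Before seeding, each leukemia line was adapted for at least four passages in each medium. NOMO1 or SEM cells (500 cells/well) and P12-Ichikawa cells (1000 cells/well) went into 1536-well plates at 5 μl, then received library compounds in DMSO by pin dosing across 11 threefold concentrations, 47 μM to 0.79 nM. Readout was CellTiter-Glo One luminescence after 48 h at 37°C, and viability is given as a per-plate percentage of DMSO wells, with cell-free wells as background.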

[1] = HPLM + 10% dialyzed FBS, 0.000781 µM
[2] = HPLM + 10% dialyzed FBS, 0.00234 µM
[3] = HPLM + 10% dialyzed FBS, 0.00702 µM
[4] = HPLM + 10% dialyzed FBS, 0.0211 µM
[5] = HPLM + 10% dialyzed FBS, 0.0632 µM
[6] = HPLM + 10% dialyzed FBS, 0.19 µM
[7] = HPLM + 10% dialyzed FBS, 0.569 µM
[8] = HPLM + 10% dialyzed FBS, 1.71 µM
[9] = HPLM + 10% dialyzed FBS, 5.12 µM
[10] = HPLM + 10% dialyzed FBS, 15.4 µM
[11] = HPLM + 10% dialyzed FBS, 46.1 µM
[12] = RPMI 5 mM glucose + 10% FBS, 0.000781 µM
[13] = RPMI 5 mM glucose + 10% FBS, 0.00234 µM
[14] = RPMI 5 mM glucose + 10% FBS, 0.00702 µM
[15] = RPMI 5 mM glucose + 10% FBS, 0.0211 µM
[16] = RPMI 5 mM glucose + 10% FBS, 0.0632 µM
[17] = RPMI 5 mM glucose + 10% FBS, 0.19 µM
[18] = RPMI 5 mM glucose + 10% FBS, 0.569 µM
[19] = RPMI 5 mM glucose + 10% FBS, 1.71 µM
[20] = RPMI 5 mM glucose + 10% FBS, 5.12 µM
[21] = RPMI 5 mM glucose + 10% FBS, 15.4 µM
[22] = RPMI 5 mM glucose + 10% FBS, 46.1 µM
[23] = RPMI 5 mM glucose + 10% dialyzed FBS, 0.000781 µM
[24] = RPMI 5 mM glucose + 10% dialyzed FBS, 0.00234 µM
[25] = RPMI 5 mM glucose + 10% dialyzed FBS, 0.00702 µM
[26] = RPMI 5 mM glucose + 10% dialyzed FBS, 0.0211 µM
[27] = RPMI 5 mM glucose + 10% dialyzed FBS, 0.0632 µM
[28] = RPMI 5 mM glucose + 10% dialyzed FBS, 0.19 µM
[29] = RPMI 5 mM glucose + 10% dialyzed FBS, 0.569 µM
[30] = RPMI 5 mM glucose + 10% dialyzed FBS, 1.71 µM
[31] = RPMI 5 mM glucose + 10% dialyzed FBS, 5.12 µM
[32] = RPMI 5 mM glucose + 10% dialyzed FBS, 15.4 µM
[33] = RPMI 5 mM glucose + 10% dialyzed FBS, 46.1 µM

Row | SMILES | cell viability [1] [%] | cell viability [2] [%] | cell viability [3] [%] | cell viability [4] [%] | cell viability [5] [%] | cell viability [6] [%] | cell viability [7] [%] | cell viability [8] [%] | cell viability [9] [%] | cell viability [10] [%] | cell viability [11] [%] | cell viability [12] [%] | cell viability [13] [%] | cell viability [14] [%] | cell viability [15] [%] | cell viability [16] [%] | cell viability [17] [%] | cell viability [18] [%] | cell viability [19] [%] | cell viability [20] [%] | cell viability [21] [%] | cell viability [22] [%] | cell viability [23] [%] | cell viability [24] [%] | cell viability [25] [%] | cell viability [26] [%] | cell viability [27] [%] | cell viability [28] [%] | cell viability [29] [%] | cell viability [30] [%] | cell viability [31] [%] | cell viability [32] [%] | cell viability [33] [%]
1 | C#CCC(Cc1cnc2nc(N)nc(N)c2n1)c1ccc(C(=O)N[C@@H](CCC(=O)O)C(=O)O)cc1 (stereo partly drawn) | 124 | 114 | 130 | 128 | 93.6 | 52 | 45.8 | 49.4 | 45.1 | 54.7 | 49.7 | 127 | 122 | 122 | 123 | 114 | 97.7 | 73.9 | 77.1 | 78.4 | 72.4 | 74.9 |  |  |  |  |  |  |  |  |  |  | 
2 | COc1ccc(/C=C/C(=O)Nc2ccccc2C(=O)O)cc1OC | 119 | 105 | 120 | 149 | 112 | 117 | 119 | 78.8 | 120 | 73.7 | 86.9 | 108 | 111 | 108 | 109 | 114 | 110 | 105 | 95 | 112 | 92.3 | 87.5 | 104 | 114 | 118 | 94.8 | 104 | 128 | 105 | 110 | 104 | 104 | 83.8
3 | c1coc(CNc2ncnc3nc[nH]c23)c1 | 120 | 126 | 123 | 133 | 129 | 136 | 117 | 118 | 118 | 108 | 97.3 | 125 | 131 | 124 | 113 | 116 | 119 | 140 | 132 | 118 | 119 | 108 | 124 | 122 | 125 | 124 | 128 | 121 | 121 | 112 | 107 | 94.1 | 88.5
4 | O=C(O)c1cccc(-c2noc(-c3ccccc3F)n2)c1 | 106 | 111 | 100 | 133 | 112 | 121 | 109 | 107 | 110 | 96.8 | 101 | 86.3 | 90.6 | 106 | 103 | 86.2 | 98 | 99.6 | 94.7 | 94.2 | 91.9 | 89.9 | 93.2 | 101 | 101 | 95.2 | 96.6 | 98.9 | 112 | 95.8 | 103 | 87.8 | 81.3
5 | CN1CCN(CC1)C2=CC3=C([NH]C(=N3)C/4=C(\N)C5=C(F)C=CC=C5NC4=O)C=C2 | 104 | 99.7 | 98.5 | 97.4 | 96.3 | 102 | 97.2 | 93.9 | 60.8 | 49.7 | 51.1 | 101 | 107 | 96.7 | 107 | 111 | 109 | 107 | 104 | 87.9 | 68.3 | 58.6 | 92.1 | 99.9 | 115 | 96.1 | 99 | 102 | 100 | 92.3 | 79.7 | 63.1 | 53.4
6 | CCn1c(C(=O)N(C2CC2)C2CC2)cc2c3c(ncn3C)c(Nc3cc(C)n(C)n3)nc21 | 90.4 | 113 | 106 | 114 | 122 | 115 | 113 | 105 | 108 | 119 | 88.5 | 86.7 | 100 | 93.9 | 118 | 117 | 103 | 114 | 102 | 102 | 111 | 84.4 | 84.1 | 104 | 105 | 94.7 | 116 | 111 | 115 | 112 | 110 | 116 | 98.6
7 | COC(=O)[C@H](Cc1ccccc1)NC(=O)[C@@H](N)CC(=O)O | 110 | 124 | 116 | 112 | 128 | 115 | 113 | 112 | 93.6 | 96.1 | 94.9 | 108 | 121 | 125 | 122 | 110 | 126 | 115 | 107 | 112 | 105 | 108 | 126 | 117 | 120 | 112 | 112 | 125 | 106 | 122 | 70.4 | 116 | 108
8 | COc1cc2c(cc1OC)CN(CCc1ccc(NC(=O)c3cccc4c(=O)c5cccc(OC)c5[nH]c34)cc1)CC2 | 97.2 | 96.8 | 114 | 121 | 122 | 121 | 109 | 45 | 29.8 | 16.8 | 11.3 | 123 | 112 | 127 | 118 | 119 | 116 | 122 | 112 | 62.8 | 23.7 | 14.1 | 112 | 114 | 127 | 113 | 130 | 130 | 133 | 133 | 52.3 | 35.2 | 24.2
